The values below come from patent US6969583B2, “Method for detecting variant HBV” (Melbourne Health, priority 2000, dated 2005).

A word on the inhibition: it is the relative decrease from the control value, in per cent. In general, IC50 refers to the midpoint of a concentration-inhibition curve.

Format in all cases: cell-based, Hepatitis B virus
The test system of assay [1] is wild-type HBV baculovirus. Put plainly: Antiviral testing with wild-type HBV baculovirus in HepG2 cells (Example 15, Southern blot densitometry). The procedure: (§1) HepG2 cells were seeded at approximately 20-40% confluency and then were grown for 16-24 hours before infection. On the day of infection, triplicate plates of cells were trypsinized, and viable cell number was determined with a hemocytometer using Trypan blue exclusion. Average cell counts were calculated and used to determine the volume of high-titer viral stock necessary to infect cells at the indicated moi. HepG2 cells were washed one time with serum-free MEM to remove traces of serum. Baculovirus was diluted into MEM without serum to achieve the appropriate moi using volumes of 1.0, 0.5, and 0.25 ml to infect 100-mm, 60 mm, and 35-mm dishes, respectively. Baculovirus was adsorbed to HepG2 cells for one hour at 37° C. with gentle rocking every 15 minutes to ensure that the inoculum was evenly distributed. The inoculum was then aspirated and HepG2 cells were washed two times with phosphate-buffered saline and refed MEM-FBS with or without various concentrations of agents.
(§2) HBV core particles were isolated from the cytoplasmic fraction of HepG2 cells lysed in 0.5% w/v NP-40. Cytoplasmic extracts were adjusted to 10 mmol/l McC12 and unprotected DNA was removed by an incubation to […] for 1.5 hours at 37° C. Following sequential phenol and chloroform extractions, nucleic acids were recovered by ethanol precipitation. Nucleic acids were resuspended in 50 μl/l TE (10 mmol/l Tris, 1 mmol/l ethylenedianinetetraacetic acid), normalized by OD260, and digested with 100 μg/ml RNase (Boehringer Mannheim, Indianapolis, Ind.) for one hour at 37° C. before analysis by electrophoresis and Southern blotting. A BioRad GS-670 imaging densitometer and the Molecular Analyst software (BioRad, Hecules Calif.) was used to analyze suitable exposures of Southern blots. Densitometry data was fitted to logistic dose response curves using the TableCurve2D software package from Jandel Scientific. Logistic dose response equations were used to calculate IC50 and IC90 values and co-efficients of variation.
(§3) 3TC and PCV were a gift from Klaus Esser, SmithKline Beecham, Collegeville, Pa. PMEA was obtained from Gilead (Foster City, Calif.). 3TC was resuspended in sterile water, aliquoted, and frozen at −20° C. to avoid repeated freezing and thawing of the drug. PMEA was resuspended in sterile water after the pH was adjusted to 7.0 with NaOH. PCV was resuspended in dimethyl sulphoxide. Medium containing 3TC was prepared daily as needed using fresh aliquots of 3TC. In experiments in which 3TC treatment was initiated after viral infection, HepG2 cells were exposed to the indicated concentration of 3TC immediately after infection with HBV baculovirus. In experiments utilizing pretreatment with 3TC, cells were fed medium containing 3TC 16 hours prior to HBV baculovirus infection, HBV baculovirus infection was also carried out in medium containing 3TC, and cells were refed fresh medium containing 3TC immediately after completion of the infection and washing procedures. Treatment with PMEA and PCV were conducted in a similar manner.
The dose effect of 3TC and PMEA, on wild-type HBV is shown graphically in FIG. 6 (A, B,) and a Southern Blot of intracellular HBV replicative intermediates and extracellular virus produced by HepG2 cells transduced with wild-type HBV-baculovirus in the presence of increasing concentrations of PCV is shown in FIG. 6C and the IC50 for each antiviral agent is shown in Table 2.

Another assay deals with M550I HBV baculovirus. The assay is described as follows: Antiviral testing with M550I HBV baculovirus in HepG2 cells (Example 15). The procedure: as §1, §2, §3
The test system of assay [2] is L526M/M550V HBV baculovirus. Put plainly: Antiviral testing with L526M/M550V HBV baculovirus in HepG2 cells (Example 15). The procedure: as §1, §2, §3
Assay [3] deals with wild-type (WT) recombinant HBV-baculovirus. Put plainly: Antiviral testing, wild-type (1.3x genomic length) recombinant HBV-baculovirus in HepG2 cells (Example 17). As to the method: as §1, §2
(§4) Conditioned medium was collected from HepG2 cells and subjected to centrifugation at 6,000 g for five minutes to remove cellular debris. HBV particles were precipitated with 10% w/v PEG 8000 and were concentrated by centrifugation at 12,000 ×g. Viral pellets were resuspended us 1 ml of MEM-FBS and divided into two aliquots. One set of aliquots was treated with 750 μg/ml Pronase for one hour and then with […] DNase 1 for one hour. Both sets of aliquots were then digested with Proteinase K, and extracted with phenol and chloroform. DNA was precipitated with 0.1 volume of 3 mol/l sodium acetate and 1 volume of isopropanol. Ten micrograms of transfer RNA was added as a carrier during precipitation. Pellets were resuspended in 25 μl of TE and digested with 0.5 mg/ml RNase for one hour. DNA was then analyzed by electrophoresis and Southern blotting.
as §3

Assay [4] relates to precore (G1896A) recombinant HBV-baculovirus. The assay is described as follows: Antiviral testing of the precore mutant (G1896A) HBV baculovirus in HepG2 cells (Example 17). The procedure:
as §1, §2, §4, §3

The test system of assay [5] is M550I recombinant HBV-baculovirus. The assay is described as follows: Antiviral testing, M550I recombinant HBV-baculovirus in HepG2 cells (Example 17). The conditions noted are these: Hepatitis B virus, HepG2, intracellular single-stranded HBV DNA, NDR = no dose response, read-out: IC50 (μM), IC SS. The procedure:
as §1
HBV core particles were isolated from the cytoplasmic fraction of HepG2 cells lysed in 0.5% w/v NP-40. […]
Conditioned medium was collected from HepG2 cells and subjected to centrifugation at 6,000 g for five minutes to remove cellular debris. […] DNA was then analyzed by electrophoresis and Southern blotting. […]

Where two headings read alike, the source gives them in different places.

For the molecule `Nc1ncnc2c1ncn2CCOCP(=O)(O)O` [Adefovir, 9-(2-phosphonylmethoxyethyl)adenine], the inhibition at 1 µM was 91.6% in assay [1] (Hepatitis B virus, HepG2, wt HBV, ds HBV DNA band density vs untreated controls, estimated from fitted curve, negative = stimulation of replication); 70% in the assay on M550I HBV baculovirus (Hepatitis B virus, HepG2, 550 (M550I) HBV, ds HBV DNA band density vs untreated controls, estimated from fitted curve, negative = stimulation); 77% in assay [2] (Hepatitis B virus, HepG2, dual (L526M/M550V) HBV, ds HBV DNA band density vs untreated controls, estimated from fitted curve, negative = stimulation). Further, the IC50 in assay [1] (Hepatitis B virus, wt HBV, ds HBV DNA bands, HepG2 cells) is 0.08 µM; with M550I HBV baculovirus (Hepatitis B virus, 550 (M550I) HBV, ds HBV DNA bands, HepG2 cells, read-out: IC50), 0.31 µM; in assay [2] (Hepatitis B virus, dual (L526M/M550V) HBV, ds HBV DNA bands, HepG2 cells), 0.16 µM; in assay [3] (Hepatitis B virus, HepG2, WT, extracellular relaxed circular HBV DNA, averages where footnoted, read-out: IC50 (μM), EC RC), 0.0535 µM; in assay [3] (Hepatitis B virus, HepG2, WT, extracellular relaxed circular HBV DNA, individual experiments behind the average, read-out: IC50, single experiments, EC RC) it was 0.06 µM; in assay [3] (Hepatitis B virus, HepG2, WT, intracellular single-stranded HBV DNA, averages where footnoted, read-out: IC50 (μM), IC SS), 0.235 µM. The IC50 amounted to 0.25 µM in assay [3] (Hepatitis B virus, HepG2, WT, intracellular single-stranded HBV DNA, individual experiments behind the average, read-out: IC50, single experiments, IC SS); 0.047 µM in assay [3] (WT, extracellular relaxed circular HBV DNA, individual experiments behind the average, read-out: IC50, single experiments, EC RC); 0.22 µM in assay [3] (WT, intracellular single-stranded HBV DNA, individual experiments behind the average, read-out: IC50, single experiments, IC SS); 0.025 µM in assay [4] (Hepatitis B virus, HepG2, Precore (G1896A), extracellular relaxed circular HBV DNA, averages where footnoted, read-out: IC50 (μM), EC RC); 0.02 µM in assay [4] (Hepatitis B virus, HepG2, Precore (G1896A), extracellular relaxed circular HBV DNA, individual experiments behind the average, read-out: IC50, single experiments, EC RC); 0.195 µM in assay [4] (Hepatitis B virus, HepG2, Precore (G1896A), intracellular single-stranded HBV DNA, averages where footnoted, read-out: IC50 (μM), IC SS). Further, the IC50 in assay [4] (Hepatitis B virus, HepG2, Precore (G1896A), intracellular single-stranded HBV DNA, individual experiments behind the average, read-out: IC50, single experiments, IC SS) stood at 0.2 µM; in assay [4] (Precore (G1896A), extracellular relaxed circular HBV DNA, individual experiments behind the average, read-out: IC50, single experiments, EC RC), 0.03 µM; in assay [4] (Precore (G1896A), intracellular single-stranded HBV DNA, individual experiments behind the average, read-out: IC50, single experiments, IC SS), 0.19 µM; in assay [5], 0.94 µM. Also, the “Resistance Factor” value in assay [1] ({}) was found to be 1; in the assay with M550I HBV baculovirus ({}), 4; in assay [2] ({}), 2. For the same molecule, the “change in sensitivity of L526M/M550V” value in assay [2] (FIG. 8A-8C, result in words) was “no substantial change”. Also, the “sensitivity of G1896A HBV compared with wild type HBV” value in assay [4] (result in words) is on record as “at least as sensitive”.
